Measured values published in US6770596B1, “Fused tricyclic compounds, process for their preparation, and herbicidal compositions containing them” (Ishihara Sangyo Kaisha Ltd., priority 2002, dated 2004).

What was measured:
Assay type in all cases: in vivo
[1] = system: large crabgrass (Digitaria sanguinalis, DIS); test: Post-emerge test, large crabgrass; details: 250 g ai/ha, 14 days after application, rating scale 0-100 (0 no damage, 100 complete death)
Excerpt: (§1) A standard greenhouse herbicide activity screening system was used to evaluate the herbicidal efficacy and crop safety of these test compounds. Seven broadleaf weed species including redroot pigweed (Amaranthus retroflexus, AMR), velvetleaf (Abutilon theophrasti, ABT), sicklepod (Cassia obtusifolia, CAO), ivyleaf morningglory (Ipomoea hederacea, IPH), lambsquarters (Chenopodium album, CHA), common ragweed (Ambrosia artemisiifolia L., AML), and cocklebur (Xanthium strumariunt, XAS) were used as test species. Four grass weed species including green foxtail (Setaria viridis, SEV), barnyardgrass (Echinachloa crus-galli, ECC), johnsongrass (Sorghum halepense, SOH), and large crabgrass (Digitaria sanguinalis, DIS) were also used. In addition, four crop species, field corn (Zea mays L., var. Dekalb 535, CORN), soybean (Glycine max L., var. Pella 86, SOY), upland rice (Oryza sp., var.Tebonnet, RICE), and wheat (Triticum aestivum) were included all plants were grown in 10 cm square plastic pots which were filled with a sandy loam soil mix.
(§2) For pre-emerge tests, seeds were planted one day prior to application of the test compounds. All test compounds were dissolved in acetone and applied to the test pots in a volume of 187 l/ha. Test materials were applied at rates ranging from 8 g ai/ha to 1000 g ai/ha using a track sprayer equipped with a TJ8001E even flow flat fan spray nozzle. This application simulates a typical commercial field herbicide application.
(§3) For post-emerge tests, seeds were planted 8-21 days prior to the test to allow emergence and good foliage development prior to application of the test substances. At the time of the post-emerge application, plants of all species were usually at the 2-3 leaf stage of development. In the postemerge test, a commercial non-ionic surfactant was also included (0.25% v/v) to enhance wetting of the leaf surfaces of target plants.
(§4) At 14 days after application of the test materials, phytotoxicity ratings were recorded. A rating scale of 0-100 was used for both pre and post emerge tests as previously described in Research Methods in Weed Science, 2nd edition, B, Truelove, Ed., Southern Weed Science Society, Auburn University, Auburn, Ala., 1977. Briefly, “0” corresponds to no damage and “100” corresponds to complete death of all plants in the test unit. This scale was used both to determine efficacy against weed species and damage to crop species. Herbicide activity data for various compounds of this invention, which are shown by compound No. in Tables 1-3, are shown in Tables 5 and 6.

[2] = system: johnsongrass (Sorghum halepense, SOH); test: Post-emerge test, johnsongrass; details: 250 g ai/ha, 14 days after application, rating scale 0-100 (0 no damage, 100 complete death)
Excerpt: as §1, §2, §3, §4

[3] = system: soybean (Glycine max L., var. Pella 86, SOY); test: Post-emerge test, crop damage soybean
Excerpt: as §1, §2, §3, §4

[4] = system: sicklepod (Cassia obtusifolia, CAO); test: Post-emerge test, sicklepod; details: 250 g ai/ha, 14 days after application, rating scale 0-100 (0 no damage, 100 complete death)
Excerpt: as §1, §2, §3, §4

[5] = system: wheat (Triticum aestivum); test: Pre-emerge test, crop damage wheat
Excerpt: as §1, §2, §4

[6] = system: lambsquarters (Chenopodium album, CHA); test: Post-emerge test, lambsquarters; details: 250 g ai/ha, 14 days after application, rating scale 0-100 (0 no damage, 100 complete death)
Excerpt: as §1, §2, §3, §4

[7] = system: common ragweed (Ambrosia artemisiifolia L., AML); test: Pre-emerge test, common ragweed; details: 250 g ai/ha, 14 days after application, rating scale 0-100 (0 no damage, 100 complete death)
Excerpt: as §1, §2, §4

[8] = system: velvetleaf (Abutilon theophrasti, ABT); test: Post-emerge test, velvetleaf; details: 250 g ai/ha, 14 days after application, rating scale 0-100 (0 no damage, 100 complete death)
Excerpt: as §1, §2, §3, §4

[9] = system: ivyleaf morningglory (Ipomoea hederacea, IPH); test: Post-emerge test, ivyleaf morningglory; details: 250 g ai/ha, 14 days after application, rating scale 0-100 (0 no damage, 100 complete death)
Excerpt: as §1, §2, §3, §4

[10] = system: green foxtail (Setaria viridis, SEV); test: Pre-emerge test, green foxtail; details: 250 g ai/ha, 14 days after application, rating scale 0-100 (0 no damage, 100 complete death)
Excerpt: as §1, §2, §4

[11] = system: ivyleaf morningglory (Ipomoea hederacea, IPH); test: Pre-emerge test, ivyleaf morningglory; details: 250 g ai/ha, 14 days after application, rating scale 0-100 (0 no damage, 100 complete death)
Excerpt: as §1, §2, §4

[12] = system: green foxtail (Setaria viridis, SEV); test: Post-emerge test, green foxtail; details: 250 g ai/ha, 14 days after application, rating scale 0-100 (0 no damage, 100 complete death)
Excerpt: as §1, §2, §3, §4

[13] = system: cocklebur (Xanthium strumariunt, XAS); test: Pre-emerge test, cocklebur; details: 250 g ai/ha, 14 days after application, rating scale 0-100 (0 no damage, 100 complete death)
Excerpt: as §1, §2, §4

[14] = system: redroot pigweed (Amaranthus retroflexus, AMR); test: Pre-emerge test, redroot pigweed; details: 250 g ai/ha, 14 days after application, rating scale 0-100 (0 no damage, 100 complete death)
Excerpt: as §1, §2, §4

[15] = system: redroot pigweed (Amaranthus retroflexus, AMR); test: Post-emerge test, redroot pigweed; details: 250 g ai/ha, 14 days after application, rating scale 0-100 (0 no damage, 100 complete death)
Excerpt: as §1, §2, §3, §4

[16] = system: common ragweed (Ambrosia artemisiifolia L., AML); test: Post-emerge test, common ragweed; details: 250 g ai/ha, 14 days after application, rating scale 0-100 (0 no damage, 100 complete death)
Excerpt: as §1, §2, §3, §4

[17] = system: velvetleaf (Abutilon theophrasti, ABT); test: Pre-emerge test, velvetleaf; details: 250 g ai/ha, 14 days after application, rating scale 0-100 (0 no damage, 100 complete death)
Excerpt: as §1, §2, §4

[18] = system: wheat (Triticum aestivum); test: Post-emerge test, crop damage wheat
Excerpt: as §1, §2, §3, §4

[19] = system: large crabgrass (Digitaria sanguinalis, DIS); test: Pre-emerge test, large crabgrass; details: 250 g ai/ha, 14 days after application, rating scale 0-100 (0 no damage, 100 complete death)
Excerpt: as §1, §2, §4

[20] = system: upland rice (Oryza sp., var.Tebonnet, RICE); test: Post-emerge test, crop damage upland rice
Excerpt: as §1, §2, §3, §4

[21] = system: cocklebur (Xanthium strumariunt, XAS); test: Post-emerge test, cocklebur; details: 250 g ai/ha, 14 days after application, rating scale 0-100 (0 no damage, 100 complete death)
Excerpt: as §1, §2, §3, §4

[22] = system: barnyardgrass (Echinachloa crus-galli, ECC); test: Post-emerge test, barnyardgrass; details: 250 g ai/ha, 14 days after application, rating scale 0-100 (0 no damage, 100 complete death)
Excerpt: as §1, §2, §3, §4

[23] = system: field corn (Zea mays L., var. Dekalb 535, CORN); test: Post-emerge test, crop damage field corn
Excerpt: as §1, §2, §3, §4

[24] = system: soybean (Glycine max L., var. Pella 86, SOY); test: Pre-emerge test, crop damage soybean
Excerpt: as §1, §2, §4

[25] = system: barnyardgrass (Echinachloa crus-galli, ECC); test: Pre-emerge test, barnyardgrass; details: 250 g ai/ha, 14 days after application, rating scale 0-100 (0 no damage, 100 complete death)
Excerpt: as §1, §2, §4

[26] = system: johnsongrass (Sorghum halepense, SOH); test: Pre-emerge test, johnsongrass; details: 250 g ai/ha, 14 days after application, rating scale 0-100 (0 no damage, 100 complete death)
Excerpt: as §1, §2, §4

[27] = system: sicklepod (Cassia obtusifolia, CAO); test: Pre-emerge test, sicklepod; details: 250 g ai/ha, 14 days after application, rating scale 0-100 (0 no damage, 100 complete death)
Excerpt: as §1, §2, §4

[28] = system: lambsquarters (Chenopodium album, CHA); test: Pre-emerge test, lambsquarters; details: 250 g ai/ha, 14 days after application, rating scale 0-100 (0 no damage, 100 complete death)
Excerpt: as §1, §2, §4

[29] = system: upland rice (Oryza sp., var.Tebonnet, RICE); test: Pre-emerge test, crop damage upland rice
Excerpt: as §1, §2, §4

[30] = system: field corn (Zea mays L., var. Dekalb 535, CORN); test: Pre-emerge test, crop damage field corn
Excerpt: as §1, §2, §4

[31] = post-emerge, 250 g ai/ha, 14 days after application, rating scale 0-100 (0 no damage, 100 complete death)
[32] = pre-emerge, 250 g ai/ha, 14 days after application, rating scale 0-100 (0 no damage, 100 complete death)
[33] = var. Pella 86, Glycine max (soybean), in vivo, 14 days
[34] = Triticum aestivum (wheat), in vivo, 14 days
[35] = var. Tebonnet, Oryza sp. (upland rice), in vivo, 14 days
[36] = var. Dekalb 535, Zea mays (field corn), in vivo, 14 days

Compound | Post-emerge Herbicidal Activity DIS (phytotoxicity rating) [1] | Post-emerge Herbicidal Activity SOH (phytotoxicity rating) [2] | Post-emerge Herbicidal Activity CAO (phytotoxicity rating) [4] | Post-emerge Herbicidal Activity CHA (phytotoxicity rating) [6] | Pre-emerge Herbicidal Activity AML (phytotoxicity rating) [7] | Post-emerge Herbicidal Activity ABT (phytotoxicity rating) [8] | Post-emerge Herbicidal Activity IPH (phytotoxicity rating) [9] | Pre-emerge Herbicidal Activity SEV (phytotoxicity rating) [10] | Pre-emerge Herbicidal Activity IPH (phytotoxicity rating) [11] | Post-emerge Herbicidal Activity SEV (phytotoxicity rating) [12] | Pre-emerge Herbicidal Activity XAS (phytotoxicity rating) [13] | Pre-emerge Herbicidal Activity AMR (phytotoxicity rating) [14] | Post-emerge Herbicidal Activity AMR (phytotoxicity rating) [15] | Post-emerge Herbicidal Activity AML (phytotoxicity rating) [16] | Pre-emerge Herbicidal Activity ABT (phytotoxicity rating) [17] | Pre-emerge Herbicidal Activity DIS (phytotoxicity rating) [19] | Post-emerge Herbicidal Activity XAS (phytotoxicity rating) [21] | Post-emerge Herbicidal Activity ECC (phytotoxicity rating) [22] | Pre-emerge Herbicidal Activity ECC (phytotoxicity rating) [25] | Pre-emerge Herbicidal Activity SOH (phytotoxicity rating) [26] | other results
CCC1C(=O)Nc2c3c(cc(F)c2-n2c(=O)cc(C(F)(F)F)n(C)c2=O)OCC(=O)N31 (stereo not drawn) [1-4] | 0 | 15 | 0 | 99 | 100 | 100 | 90 | 100 | 100 | 60 | 100 | 100 | 0 | 80 | 100 | 100 | 90 | 50 | 100 | 100 | Post-emerge crop damage SOY (phytotoxicity rating) [3, 31]: 60; Pre-emerge crop damage WHEAT (phytotoxicity rating) [5, 32]: 100; Post-emerge crop damage WHEAT (phytotoxicity rating) [18, 31]: 25; Post-emerge crop damage RICE (phytotoxicity rating) [20, 31]: 75; Post-emerge crop damage CORN (phytotoxicity rating) [23, 31]: 0; Pre-emerge crop damage SOY (phytotoxicity rating) [24, 32]: 100; Pre-emerge Herbicidal Activity CAO (phytotoxicity rating) [27]: 99; Pre-emerge Herbicidal Activity CHA (phytotoxicity rating) [28]: 100; Pre-emerge crop damage RICE (phytotoxicity rating) [29, 32]: 99; Pre-emerge crop damage CORN (phytotoxicity rating) [30, 32]: 100
Cn1nc(-c2c(F)cc3c4c2NC(=O)CN4C(=O)CO3)c(Cl)c1C(F)(F)F [1-13, 8-[4-Chloro-1-methyl-5-(trifluoromethyl)-1H-pyrazol-3-yl]-9-fluoro-5H-pyrazino[1,2,3-de]-1,4-benzoxazine-3,6(2H, 7H)-dione] | 55 | 100 | 100 | 100 | 100 | 100 | 100 | 100 | 100 | 100 | 80 | 100 | 100 | 100 | 100 | 100 | 100 | 99 | 100 | 100 | Post-emerge crop damage SOY (phytotoxicity rating) [3, 33]: 100; Pre-emerge crop damage WHEAT (phytotoxicity rating) [5, 34]: 65; Post-emerge crop damage WHEAT (phytotoxicity rating) [18, 34]: 25; Post-emerge crop damage RICE (phytotoxicity rating) [20, 35]: 99; Post-emerge crop damage CORN (phytotoxicity rating) [23, 36]: 25; Pre-emerge crop damage SOY (phytotoxicity rating) [24, 33]: 50; Pre-emerge Herbicidal Activity CAO (phytotoxicity rating) [27]: 100; Pre-emerge Herbicidal Activity CHA (phytotoxicity rating) [28]: 100; Pre-emerge crop damage RICE (phytotoxicity rating) [29, 35]: 90; Pre-emerge crop damage CORN (phytotoxicity rating) [30, 36]: 90
